Test results: patent US8716293B2, “Macrocyclic integrase inhibitors” (Janssen R&D Ireland, priority 2010, dated 2014)
pEC50: −log10 of the molar value.

Assays:
HIV-1 SDM strain Q148R = experiment: cell-based HIV-1 replication assay in MT4-LTR-EGFP cells, Q148R mutant; conditions: fold change in activity against Q148R mutant compared to wild type HIV
Source text: (§1) MT4-LTR-enhanced green fluorescent protein (EGFP) cells were obtained by transfecting MT4 cells with a selectable construct encompassing the coding sequences for the HIV LTR as a promoter for the expression of EGFP and subsequent selection of permanently transfected cells. MT4-cytomegalovirus (CMV)-EGFP cells were obtained by selection for permanently transformed MT4 cells with a CMV-EGFP reporter gene. Cell lines were maintained in RPMI 1640 medium supplemented with 10% heat-inactivated fetal calf serum, 2 mM L-glutamine, 0.1% NaHCO3, and antibiotics (0.02% gentamicin and 0.8% G418) and incubated in a humidified incubator with a 5% CO2 atmosphere at 37° C.
(§2) N155H and Q148R mutant Integrase coding sequences were constructed in the pUC19-5′HXB2D vector (XbaI-SalI fragment of pHXB2D), containing the HIV-1 clone HXB2D IN coding sequence, by using a QuikChange site-directed mutagenesis kit (Stratagene, La Jolla, Calif.) and HPLC-purified primers (Genset Oligos, La Jolla, Calif.). Altered plasmid sequences were confirmed by dideoxyribose sequencing. For generation of site-directed mutant (SDM) virus stocks, MT4 cells were subcultured at a density of 250,000 cells/ml on the day before transfection. Cells were pelleted and resuspended in phosphate-buffered saline at a concentration of 3.1×10^6 cells/ml. A 0.8-ml portion ([…]) was used for each transfection. Transfections were performed with a Bio-Rad Gene Pulser (Bio-Rad, Hercules, Calif.) with 0.4-cm electrode cuvettes (Bio-Rad). Cells were electroporated with 10 μg of SalI-linearized pUC19-3′HXB2D (SalI-XbaI fragment of pHXB2D) and 5 μg of SalI-digested SDM at 250 μF and 300 V, followed by a 30-min incubation at room temperature. Ten ml of fresh culture medium was then added to the suspension of transfected cells, and incubation was performed at 37° C. in a humidified atmosphere with 5% CO2. Cell cultures were monitored for the appearance of cytopathic effect (CPE).
(§3) The inhibitory antiviral activity of different compounds was determined in a cell-based HIV-1 replication assay. MT4-LTR-EGFP cells (150,000 cells/ml) were infected with HIV-1 (IIIB or SDM strains Q148R, N155H, or G140S-Q148H; multiplicity of infection [MOI] of 0.0025) in the presence or absence of inhibitor. After 3 days of incubation, the inhibition of HIV replication was quantified by measuring EGFP fluorescence, and expressed as the compound concentration required for 50% inhibition of HIV-1 replication in cell culture (EC50).

[1] = system: HIV-1 SDM strain G140S-Q148H; experiment: cell-based HIV-1 replication assay in MT4-LTR-EGFP cells, G140S-Q148H mutant; conditions: fold change in activity against G140S-Q148H mutant compared to wild type HIV
Source text: as §1, §2, §3

HIV-1 LAI (IIIB) = experiment: antiviral assay in the presence of 50% human serum; format: cell-based; conditions: MT-4-LTR-EGFP cells, 4 days, resazurin cell viability
Protocol: For the antiviral assay in the presence of 50% human serum, MT-4-LTR-EGFP cells were infected with HIV-1 LAI (IIIB) at a MOI of 0.001 to 0.01 CCID50/cell in RPMI1640 medium. Following 1 h of incubation, cells were washed and plated into a 96-well plate containing serial dilutions of test compound in the presence of 10% fetal calf serum or 50% human serum. After 4 days of incubation, the EC50 in the presence of 50% human serum (EC50/HS) was determined by a cell viability assay using resazurin (as described by Fields, R. D., and M. V. Lancaster (1993) Am. Biotechnol. Lab. 11:48-50).

HIV-1 SDM strain N155H = experiment: cell-based HIV-1 replication assay in MT4-LTR-EGFP cells, N155H mutant; conditions: fold change in activity against N155H mutant compared to wild type HIV
Source text: as §1, §2, §3

Row | Compound | FC-Q148R (HIV-1 SDM strain Q148R) | FC-G140S-Q148H [1] | pEC50 (HIV-1 LAI (IIIB)) | FC-N155H (HIV-1 SDM strain N155H)
1 | CCN1C[C@H](C)n2c(c(O)c3c(=O)n4nc(c32)N2CCN(CCCCCOc3cc(F)ccc3C4)S2(=O)=O)C1=O [Compound 2a] | 0.7 | 3.3 | 6.17 | 25.3
2 | CCN1C[C@H](C)n2c(c(O)c3c(=O)n4nc(c32)N2CCN(CCCCCOc3cc(F)ccc3C4)S2(=O)=O)C1=O [Compound 2b] | 0.9 | 6.2 | 8.10 | 8.0
3 | CCN1C[C@H](C)n2c(c(O)c3c(=O)n4nc(c32)N(C)S(=O)(=O)CCCOc2cc(F)ccc2C4)C1=O [Compound 8] | 3.3 | 11.3 | 8.00 | 11.7
4 | CCN1C[C@H](C)n2c(c(O)c3c(=O)n4nc(c32)N(C)S(=O)(=O)[C@@H](C)CCCCOc2cc(F)ccc2C4)C1=O [Compound 9] | 0.4 | 1.2 | 5.72 | 2.0
5 | CCN1C[C@H](C)n2c(c(O)c3c(=O)n4nc(c32)N(C)S(=O)(=O)[C@H](C)CCCCOc2cc(F)ccc2C4)C1=O [Compound 10] | 0.5 | 1.2 | 7.77 | 2.8
6 | CCN1C[C@H](C)n2c(c(O)c3c(=O)n4nc(c32)N(CC)S(=O)(=O)CCCCOc2cc(F)ccc2C4)C1=O [Compound 11] | 2.1 | 14.3 | 8.05 | 5.1
7 | CCN1C[C@H](C)n2c(c(O)c3c(=O)n4nc(c32)N(C2CC2)S(=O)(=O)CCCCOc2cc(F)ccc2C4)C1=O [Compound 12] | 0.7 | 5.1 | 7.89 | 3.5
8 | CCN1c2nn(c(=O)c3c(O)c4n(c23)[C@@H](C)CN(C(C)C)C4=O)Cc2ccc(F)cc2OCCCCS1(=O)=O [Compound 13] | 0.7 | 2.6 | 7.96 | 3.5
9 | CC(C)N1C[C@H](C)n2c(c(O)c3c(=O)n4nc(c32)N(C2CC2)S(=O)(=O)CCCCOc2cc(F)ccc2C4)C1=O [Compound 14] | 1.0 | 4.3 | 7.74 | 3.5
10 | CCN1C[C@H](C)n2c(c(O)c3c(=O)n4nc(c32)N(CC)S(=O)(=O)CCCCCOc2cc(F)ccc2C4)C1=O [Compound 15] | 0.5 | 1.4 | 7.48 | 3.4
11 | CCN1C[C@H](C)n2c(c(O)c3c(=O)n4nc(c32)N(C2CC2)S(=O)(=O)CCCCCOc2cc(F)ccc2C4)C1=O [Compound 16] | 0.6 | 1.3 | 7.37 | 3.5
12 | CCN1C[C@H](C)n2c(c(O)c3c(=O)n4nc(c32)N(C)S(=O)(=O)CCCCOc2cc(F)c(Cl)cc2C4)C1=O [Compound 17] | 0.6 | 1.9 | 7.62 | 4.7
13 | CCN1C[C@H](C)n2c(c(O)c3c(=O)n4nc(c32)N(C)S(=O)(=O)CCCCCOc2cc(F)c(Cl)cc2C4)C1=O [Compound 18] | 0.8 | 1.8 | 7.33 | 4.7
14 | CCN1C[C@H](C)n2c(c(O)c3c(=O)n4nc(c32)N(C)S(=O)(=O)CCCCOc2cc(F)c(F)cc2C4)C1=O [Compound 19] | 1.1 | 3.6 | 8.10 | 4.9
15 | CCN1C[C@H](C)n2c(c(O)c3c(=O)n4nc(c32)N(C)S(=O)(=O)CCCCCOc2cc(F)c(F)cc2C4)C1=O [Compound 20] | 0.6 | 1.5 | 7.77 | 4.8
16 | CCN1C[C@H](C)n2c(c(O)c3c(=O)n4nc(c32)N(C)S(=O)(=O)CCCCCNC(=O)c2cc(F)ccc2C4)C1=O [Compound 21] | 0.6 | 1.9 | 7.27 | 6.6

Row | Compound | FC-Q148R (HIV-1 SDM strain Q148R) | FC-G140S-Q148H [1] | pEC50 (HIV-1 LAI (IIIB)) | FC-N155H (HIV-1 SDM strain N155H)
17 | CCN1C[C@H](C)n2c(c(O)c3c(=O)n4nc(c32)N(C)S(=O)(=O)CCCNC(=O)c2cc(F)ccc2C4)C1=O [Compound 23] | 0.7 | 2.1 | 8.15 | 9.6
18 | CCN1C[C@H](C)n2c(c(O)c3c(=O)n4nc(c32)C(=O)NCCCCOc2cc(F)ccc2C4)C1=O [Compound 24] | 4.3 | 179.1 | 7.96 | 10.4
19 | CCN1C[C@H](C)n2c(c(O)c3c(=O)n4nc(c32)C(=O)NCCCCCOc2cc(Cl)ccc2C4)C1=O [Compound 25] | 0.3 | 3.7 | 6.86 | 3.5
20 | CCN1C[C@H](C)n2c(c(O)c3c(=O)n4nc(c32)C(=O)NCCCCCOc2cc(F)c(Cl)cc2C4)C1=O [Compound 26] | 0.8 | 4.1 | 7.49 | 4.3
21 | CCN1CCn2c(c(O)c3c(=O)n4nc(c32)C(=O)NCCCCCOc2cc(F)ccc2C4)C1=O [Compound 27] | 3.0 | 668.8 | 8.30 | 8.6
22 | C[C@H]1CN(C)C(=O)c2c(O)c3c(=O)n4nc(c3n21)C(=O)NCCCCCOc1cc(F)ccc1C4 [Compound 28] | 0.9 | 17.0 | 7.85 | 4.5
23 | CC(C)N1C[C@H](C)n2c(c(O)c3c(=O)n4nc(c32)C(=O)NCCCCCOc2cc(F)ccc2C4)C1=O [Compound 29] | 0.4 | 2.2 | 7.72 | 3.8
24 | CCN1C[C@H](C)n2c(c(O)c3c(=O)n4nc(c32)C(=O)N(C)CCCCOc2cc(F)ccc2C4)C1=O [Compound 30] | 41.1 | 572.0 | 7.55 | 410.4
25 | CCN1C[C@H](C)n2c(c(O)c3c(=O)n4nc(c32)C(=O)N(C)CCCCCOc2cc(F)c(Cl)cc2C4)C1=O [Compound 32] | 0.3 | 2.6 | 7.11 | 4.3
26 | CCN1C[C@H](C)n2c(c(O)c3c(=O)n4nc(c32)C(=O)N(C)CCCCCOc2cc(F)c(F)cc2C4)C1=O [Compound 34] | 0.4 | 5.9 | 7.74 | 7.4
27 | CC(C)N1C[C@H](C)n2c(c(O)c3c(=O)n4nc(c32)C(=O)N(C)CCCCCOc2cc(F)ccc2C4)C1=O [Compound 35] | 0.4 | 2.7 | 7.52 | 4.8
28 | C[C@H]1CN(C2CC2)C(=O)c2c(O)c3c(=O)n4nc(c3n21)C(=O)NCCCCCOc1cc(F)ccc1C4 [Compound 36] | 2.4 | 60.1 | 7.74 | 5.8
29 | C[C@H]1CN(C2CC2)C(=O)c2c(O)c3c(=O)n4nc(c3n21)C(=O)N(C)CCCCCOc1cc(F)ccc1C4 [Compound 37] | 0.8 | 109.5 | 7.66 | 8.8
30 | CCN1CCn2c(c(O)c3c(=O)n4nc(c32)C(=O)N(C)CCCCCOc2cc(F)ccc2C4)C1=O [Compound 38] | 1.2 | 106.3 | 7.54 | 6.8
31 | CCN1C[C@H](C)n2c(c(O)c3c(=O)n4nc(c32)NCCCNC(=O)c2cc(F)ccc2C4)C1=O [Compound 39] | 1.1 | 2.8 | 5.47 | 4.6
